Measurements: USRE38257E1, “Piperdine derivatives and hypotensives containing the same” (Ajinomoto Co., Inc., priority 1988, dated 2003)
Where a name gives a salt, the structure may show the parent alone.

System: male spontaneously hypertensive rats
Assay: Decrease in systolic blood pressure in spontaneously hypertensive rats after intravenous bolus injection, indirect (tail-cuff) method
Format: in vivo, rat
Settings: for Decrease in systolic blood pressure (mmHg) time after administration (hour) 0.5: 0.5 hour after administration; for Decrease in systolic blood pressure (mmHg) time after administration (hour) 4: 4 hours after administration
Protocol: As test animals, four male spontaneously hypertensive rats (weight 400 to 440 g) that were sufficiently adapted for feeding and in which hypertension was confirmed were used.
Physiological saline aqueous solution containing 2.5% Nicolle and 2.5% ethanol of sample was intravenously administered by bolus injection at a dose of 1 ml per 1 kg of body weight. Systolic blood pressure after administration was measured by the indirect (tail-cuff) method.

| SMILES | Decrease in systolic blood pressure (mmHg) time after administration (hour) 0.5 (dose 10 mg/kg i.v. bolus) [mmHg] | Decrease in systolic blood pressure (mmHg) time after administration (hour) 4 (dose 10 mg/kg i.v. bolus) [mmHg] | Decrease in systolic blood pressure (mmHg) time after administration (hour) 0.5 (dose 3 mg/kg i.v. bolus) [mmHg] | Decrease in systolic blood pressure (mmHg) time after administration (hour) 4 (dose 3 mg/kg i.v. bolus) [mmHg] |
| --- | --- | --- | --- | --- |
| COc1cc(C(=O)N2CCC(=C3c4ccccc4C=Cc4ccccc43)CC2)cc(OC)c1OC [Example 189, 4-(5H-Dibenzo[a,d]cyclohepten-5-ylidene)-1-(3,4,5-trimethoxybenzoyl)piperidine] | −72 | −15 | – | – |
| Cc1ccccc1C(=O)N1CCC(=C2c3ccccc3C=Cc3ccccc32)CC1 [Example 190, 4-(5H-Dibenzo[a,d]cyclohepten-5-ylidene)-1-(2-methylbenzoyl)piperidine] | −11 | −15 | – | – |
| O=C(Cc1ccc(F)cc1)N1CCC(=C2c3ccccc3C=Cc3ccccc32)CC1 [Example 191, 4-(5H-Dibenzo[a,d]cyclohepten-5-ylidene)-1-(2-(4-fluorophenyl)acetyl)piperidine] | −29 | −20 | – | – |
| COc1cccc(C=CC(=O)N2CCC(=C3c4ccccc4C=Cc4ccccc43)CC2)c1OC [Example 192, 4-(5H-Dibenzo[a,d]cyclohepten-5-ylidene)-1-(2-dimethoxycinnamoyl)piperidine] | −25 | −36 | – | – |
| COc1cccc(C=CCN2CCC(=C3c4ccccc4C=Cc4ccccc43)CC2)c1OC.Cl [Example 193, 4-(5H-Dibenzo[a,d]cyclohepten-5-ylidene)-1-(2-dimethoxycinnamyl)piperidine hydrochloride] | −124 | −59 | – | – |
| CCOc1ccc(C(=O)CCCN2CCC(=C3c4ccccc4C=Cc4ccccc43)CC2)cc1OCC.Cl [Example 194, 4-(4-(5H-Dibenzo[a,d]cyclohepten-5-ylidene)-1-piperidinyl)-3′,4′-diethoxybutyrophenone hydrochloride] | −59 | −17 | – | – |
| Cl.Cl.Nc1ccc(CCCCN2CCC(=C3c4ccccc4C=Cc4ccccc43)CC2)cc1 [Example 195, 1-(4-(4-Aminophenyl)butyl)-4-(5H-dibenzo[a,d]cyclohepten-5-ylidine)piperidine dihydrochloride] | −100 | −51 | – | – |
| Cl.O=[N+]([O-])c1ccc(CCCCN2CCC(=C3c4ccccc4C=Cc4ccccc43)CC2)cc1 [Example 196, 4-(5H-Dibenzo[a,d]cyclohepten-5-ylidene)-1-(4-(4-nitrophenyl)butyl)piperidine hydrochloride] | −145 | −81 | – | – |
| CC(=O)Nc1ccc(CCCCN2CCC(=C3c4ccccc4C=Cc4ccccc43)CC2)cc1.Cl.Cl [Example 197] | −51 | −26 | – | – |
| Cc1ccc(C(=O)CCCN2CCC(=C3c4ccccc4C=Cc4ccccc43)CC2)cc1C.Cl [Example 198] | −124 | −25 | – | – |
| CCOC(=O)CCCN1CCC(=C2c3ccccc3C=Cc3ccccc32)CC1.Cl [Example 199, Ethyl 4-(4-(5H-dibanzo[a,d]cyclohepten-5-ylidene)-1-piperidinyl)butyrate hydrochloride] | −15 | −24 | – | – |
| O=C(O)CCCN1CCC(=C2c3ccccc3C=Cc3ccccc32)CC1 [Example 200] | −10 | −24 | – | – |
| COc1ccc(CCCN2CCC(=C3c4ccccc4C=Cc4ccccc43)CC2)cc1OC.Cl [Example 201, 4-(5H-Dibenzo[a,d]cyclohepten-5-ylidene)-1-(-3-(3′,4′-dimethoxyphenyl)propyl)piperidine hydrochloride] | −118 | −21 | – | – |
| COc1ccc(CCC(=O)N2CCC(=C3c4ccccc4C=Cc4ccccc43)CC2)cc1OC [Example 202, 4-(5H-Dibenzo[a,d]cyclohepten-5-ylidene)-1-(3-(3′,4′-dimethoxyphenyl)propanoyl)piperidine] | −54 | −16 | – | – |
| Cl.O=C(CCCN1CCC(=C2c3ccccc3C=Cc3ccccc32)CC1)N1CCCCC1 [Example 203, 1-(4-(4-(5H-Dibenzo[a,d]cyclohepten-5-ylidene)-1-piperidinyl)butanoyl)piperidine hydrochloride] | – | – | −123 | −58 |
| Cl.O=C(CCCN1CCC(=C2c3ccccc3C=Cc3ccccc32)CC1)N1CCc2ccccc2C1 [Example 204, N-(4-(4-(5H-Dibenzo[a,d]cyclohepten-5-ylidene)-1-piperidinyl)butanoyl)-1,2,3,4-tetrahydroisoquinoline hydrochloride] | −141 | −84 | – | – |
| COc1ccc(C(O)CCCN2CCC(=C3c4ccccc4C=Cc4ccccc43)CC2)cc1OC.Cl (stereo not drawn) [Example 205, 4-(4-(5H-Dibenzo[a,d]cyclohepten-5-ylidene)-1-piperidinyl)-1-(3,4-dimethoxy)phenyl-1-hydroxybutane hydrochloride] | −22 | −4 | – | – |
| CCCCC(O)(CCCN1CCC(=C2c3ccccc3C=Cc3ccccc32)CC1)c1ccc(OC)c(OC)c1.Cl (stereo not drawn) [Example 207, 1-butyl-4-(4-(5H-dibenzo[a,d]cyclohepten-5-ylidene)-1-piperidinyl)-1-(3,4-dimethoxy)phenyl-1-hydroxybutane hydroxybutane hydrochloride] | −98 | −43 | – | – |
| C1=Cc2ccccc2C(=C2CCN(CCCCN3CCCCC3)CC2)c2ccccc21 [Example 209, 1-(4-(4-(5H-Dibenzo[a,d]cyclohepten-5-ylidene)-1-piperidinyl)butyl)piperidine dihydroxybutane hydrochloride] | −49 | −13 | – | – |
| C1=Cc2ccccc2C(=C2CCN(Cc3ccc4ccccc4c3)CC2)c2ccccc21.Cl [Example 212, 4-(5H-Dibenzo[a,d]cyclohepten-5-ylidene)-1-(2-naphthylmethyl)piperidine hydrochloride] | −155 | – | – | – |
| O=C(c1cccc2ccccc12)N1CCC(=C2c3ccccc3C=Cc3ccccc32)CC1 [Example 213, 4-(5H-Dibenzo[a,d]cyclohepten-5-ylidene)-1-(1-naphthoyl)piperidine] | −82 | 3 | – | – |
| C1=Cc2ccccc2C(=C2CCN(Cc3cccc4ccccc34)CC2)c2ccccc21.Cl [Example 214, 4-(5H-Dibenzo[a,d]cyclohepten-5-ylidene)-1-(1-naphthylmethyl)piperidine hydrochloride] | −126 | −21 | – | – |
| Cl.O=C1CCCCC1CCCCN1CCC(=C2c3ccccc3C=Cc3ccccc32)CC1 (stereo not drawn) [Example 215, 2-(4-(4-(5H-Dibenzo[a,d]cyclohepten-5-ylidene)-1-piperidinyl)butyl)cyclohexanone hydrochloride] | −128 | −14 | – | – |
| Cl.O=C(CCCN1CCC(=C2c3ccccc3C=Cc3ccccc32)CC1)N1CCC(O)CC1 [Example 216, 1-(4-(4-(5H-Dibenzo[a,d]cyclohepten-5-ylidene)-1-piperidinyl)butanoyl)-4-hydroxypiperidine hydrochloride] | – | – | −2 | −27 |
| CCOC(=O)C1CCN(C(=O)CCCN2CCC(=C3c4ccccc4C=Cc4ccccc43)CC2)CC1.Cl [Example 217, 1-(4-(4-(5H-Dibenzo[a,d]cyclohepten-5-ylidene)-1-piperidinyl)butanoyl)-4-ethoxyxarbonpiperidine hydrochloride] | −18 | −20 | – | – |
| C1=Cc2ccccc2C(=C2CCN(CCCOC3CCCCC3)CC2)c2ccccc21.Cl [Example 218, Cyclohexyl 3-(4-(5H-Dibenzo[a,d]cyclohpetan-5-ylidene)-1-piperidinyl)propylether hydrochloride] | −97 | −11 | – | – |
